Results taken from patent publication US8623885B2, “Fused tricyclic dual inhibitors of CDK 4/6 and FLT3” (Amgen Inc., priority 2011, dated 2014).

Legend:
[1] = molecular target: FLT3 enzyme (GST-FLT3 fusion) (Homo sapiens (Human), UniProt P36888); experiment: FLT3 HTRF kinase assay; type: biochemical; settings: 116 μM ATP
Protocol: The FLT3 inhibitory activity of the CDK4/6-FLT3 inhibitors was determined with a HTRF kinase assay. The FLT3 enzyme (GST-FLT3 fusion) was purchased from Carna Biosciences. An ULight-labeled synthetic peptide derived from human Janus kinase 1 (aa1015-1027, ULight-JAK1, PerkinElmer) was utilized as the phosphoacceptor substrate. The assay was conducted in a 384-well white OptiPlate (PerkinElmer). The 20 μL reaction mixture contained 50 nM ULight-JAK1, 116 μM ATP, 0.0385 ng/μL FLT3 and dilutions of test compounds in the kinase buffer (50 mM Hepes, pH 7.6, 1 mM EGTA, 10 mM MgCl2, 2 mM DTT, and 0.005% Tween 20). The reaction was allowed to proceed for 1 hour at room temperature and was stopped by adding 20 μL of 10 mM EDTA, 2 nM LANCE® Eu-W1024 anti-phospho-tyrosine antibody in LANCE® detection buffer (PerkinElmer). The plates were incubated at room temperature for 2 hours after addition of detection reagents and then read on an Envision multimode reader (PerkinElmer).
(§1) IC50 values of the compounds in the above assays were determined by non-linear regression analysis using Prism (GraphPad Software).

[2] = system: MOLM13 cells; experiment: [14C]-thymidine incorporation cell proliferation assay, MOLM13; type: cell-based, human; settings: Homo sapiens, MOLM-13, 72 hour incubation
Protocol: The cell proliferation inhibition potency of the CDK4/6-FLT3 inhibitors was determined by using a [^14C]-thymidine incorporation assay. Exponentially growing cells (MOLM-13, Colo-205, etc.) were seeded in a 96-well Cytostar T plate (GE Healthcare Biosciences) at a density of 5×10^3 cells/well and incubated overnight. Serially diluted compounds and 0.1 μCi of [^14C]-thymidine (GE Healthcare Biosciences) were added to each well on the following day. After 72 hour incubation, isotope incorporation was determined with a β plate counter (Wallac). MOLM13 is a human AML tumor cell line expressing FLT3, FLT3^ITD and wild type Rb.
as §1

[3] = molecular target: CDK4/Cyclin D1 (Homo sapiens (Human), UniProt P11802); experiment: CDK4 filtration kinase assay; type: biochemical; settings: CDK4/Cyclin D1, Rb fragment substrate, [33P]-ATP filtration assay
Protocol: The CDK4 and CDK1 inhibitory activity of the CDK4/6-FLT3 inhibitors was determined with a filtration kinase assay. The compounds, kinase and substrate diluted in the kinase buffer (20 mM Tris, pH7.4, 50 mM NaCl, 1 mM DTT, 0.1% BSA) were sequentially added to a 96-well Multiscreen HTS filtration plate (Millipore). The final 100 μL reaction mixture in each well contained 0.3 μg of CDK4/Cyclin D1 or CDK1/Cyclin B (Cell Signaling Technology), 1 μg of Rb fragment (aa773-928, Millipore) for the CDK4 assay or 5 μg of histone H1 for the CDK1 assay and 1 μCi of [^33P]-ATP. The mixture was incubated at room temperature for 1 hour. The proteins in the reaction were then precipitated and washed with cold TCA solution using an aspiration/filtration vacuum system. The plates were dried at room temperature, and the retained radioactivity was measured by scintillation counting.
as §1

Sequence of CDK4/Cyclin D1 (P11802 whole entry, the tested form may be a part): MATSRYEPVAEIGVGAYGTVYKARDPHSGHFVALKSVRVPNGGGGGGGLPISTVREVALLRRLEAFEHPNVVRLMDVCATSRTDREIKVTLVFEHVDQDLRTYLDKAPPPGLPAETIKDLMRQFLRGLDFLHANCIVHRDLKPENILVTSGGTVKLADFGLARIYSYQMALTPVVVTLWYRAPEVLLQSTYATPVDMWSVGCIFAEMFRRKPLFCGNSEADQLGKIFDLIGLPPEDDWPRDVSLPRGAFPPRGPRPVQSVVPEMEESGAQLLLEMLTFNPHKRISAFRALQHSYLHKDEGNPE
Sequence of CDK4/Cyclin D1 (P24385 whole entry partner, the tested form may be a part): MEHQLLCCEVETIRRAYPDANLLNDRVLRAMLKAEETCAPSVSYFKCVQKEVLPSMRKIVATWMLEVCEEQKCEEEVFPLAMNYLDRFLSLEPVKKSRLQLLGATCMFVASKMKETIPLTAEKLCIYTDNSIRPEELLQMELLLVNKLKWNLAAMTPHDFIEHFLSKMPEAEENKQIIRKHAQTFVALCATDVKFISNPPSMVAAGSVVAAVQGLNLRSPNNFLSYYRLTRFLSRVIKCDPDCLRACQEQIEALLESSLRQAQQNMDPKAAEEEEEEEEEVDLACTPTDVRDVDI
Sequence of FLT3 enzyme (GST-FLT3 fusion) (P36888 27-993): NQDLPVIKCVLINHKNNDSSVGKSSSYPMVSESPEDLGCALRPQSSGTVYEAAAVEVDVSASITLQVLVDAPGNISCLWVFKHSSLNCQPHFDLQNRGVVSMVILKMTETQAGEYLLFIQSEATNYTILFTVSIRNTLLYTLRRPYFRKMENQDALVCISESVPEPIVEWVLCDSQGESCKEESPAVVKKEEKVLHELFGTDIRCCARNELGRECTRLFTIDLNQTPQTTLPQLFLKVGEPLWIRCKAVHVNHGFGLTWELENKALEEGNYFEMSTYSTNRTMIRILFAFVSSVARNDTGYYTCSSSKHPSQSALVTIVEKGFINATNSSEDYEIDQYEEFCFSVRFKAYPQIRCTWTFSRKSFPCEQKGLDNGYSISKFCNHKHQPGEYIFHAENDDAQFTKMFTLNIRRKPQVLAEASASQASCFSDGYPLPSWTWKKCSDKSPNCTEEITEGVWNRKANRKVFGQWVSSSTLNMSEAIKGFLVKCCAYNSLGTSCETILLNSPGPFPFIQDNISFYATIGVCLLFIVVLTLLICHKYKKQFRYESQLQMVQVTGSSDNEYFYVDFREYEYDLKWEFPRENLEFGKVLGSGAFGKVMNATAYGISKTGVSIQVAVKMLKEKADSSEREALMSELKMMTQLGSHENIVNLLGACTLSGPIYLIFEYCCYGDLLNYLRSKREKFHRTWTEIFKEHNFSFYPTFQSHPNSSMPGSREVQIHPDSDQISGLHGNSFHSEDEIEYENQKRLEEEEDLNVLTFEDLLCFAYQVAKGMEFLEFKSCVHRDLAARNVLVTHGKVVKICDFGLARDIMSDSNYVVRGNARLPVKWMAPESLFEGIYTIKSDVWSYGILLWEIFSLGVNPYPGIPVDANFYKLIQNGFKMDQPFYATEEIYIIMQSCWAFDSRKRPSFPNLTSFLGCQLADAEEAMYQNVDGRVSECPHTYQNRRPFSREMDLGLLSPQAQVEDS

SMILES | IC50 [1] [µM] | IC50 [2] [µM] | IC50 [3] [µM]
CC(=O)N1CCc2nc(Nc3ncc4c5ccncc5n([C@H]5CC[C@H](C)CC5)c4n3)ccc2C1 [Example 2, 1-(2-((9-((1r,4r)-4-Methylcyclohexyl)-9H-pyrido[4′,3′:4,5]pyrrolo[2,3-d]pyrimidin-2-yl)amino)-7,8-dihydro-1,6-naphthyridin-6(5H)-yl)ethanone] | 0.0032 | 0.0225 | 0.0045
C[C@H]1CC[C@H](n2c3cnccc3c3cnc(Nc4ccc5c(n4)CCN(CCO)C5)nc32)CC1 [Example 3, 2-(2-((9-((1r,4r)-4-Methylcyclohexyl)-9H-pyrido[4′,3′:4,5]pyrrolo[2,3-d]pyrimidin-2-yl)amino)-7,8-dihydro-1,6-naphthyridin-6(5H)-yl)ethanol] | 0.0018 | 0.0148 | 0.0026
C[C@H]1CC[C@H](n2c3cnccc3c3cnc(Nc4ccc5c(n4)CCN(C(=O)C(=O)O)C5)nc32)CC1 [Example 6, 2-(2-((9-((1r,4r)-4-Methylcyclohexyl)-9H-pyrido[4′,3′:4,5]pyrrolo[2,3-d]pyrimidin-2-yl)amino)-7,8-dihydro-1,6-naphthyridin-6(5H)-yl)-2-oxoacetic acid] | 0.0033 | 0.046 | 0.12
C[C@H]1CC[C@H](n2c3cnccc3c3cnc(Nc4ccc5c(n4)CCN(CCF)C5)nc32)CC1 [Example 9, N-(6-(2-Fluoroethyl)-5,6,7,8-tetrahydro-1,6-naphthyridin-2-yl)-9-((1r,4r)-4-methylcyclohexyl)-9H-pyrido[4′,3′:4,5]pyrrolo[2,3-d]pyrimidin-2-amine] | 0.0034 | 0.0649 | 0.0728

Second part, the compound after the results:

IC50 [1] [µM] | IC50 [2] [µM] | IC50 [3] [µM] | SMILES
0.0027 | 0.0108 | 0.0184 | C[C@H]1CC[C@H](n2c3cnccc3c3cnc(Nc4cc5c(cn4)CCN(CCO)C5)nc32)CC1 [Example 12, 2-(7-((9-((1r,4r)-4-Methylcyclohexyl)-9H-pyrido[4′,3′:4,5]pyrrolo[2,3-d]pyrimidin-2-yl)amino)-3,4-dihydro-2,6-naphthyridin-2(1H)-yl)ethanol]
0.00065 | 0.0052 | 0.036 | O=C(CO)N1CCc2nc(Nc3ncc4c5ccncc5n(C5CCCC5)c4n3)ccc2C1 [Example 22, 1-(2-((9-Cyclopentyl-9H-pyrido[4′,3′:4,5]pyrrolo[2,3-d]pyrimidin-2-yl)amino)-7,8-dihydro-1,6-naphthyridin-6(5H)-yl)-2-hydroxyethanone]
0.0031 | 0.0295 | 0.0203 | CC1CN(CCO)Cc2ccc(Nc3ncc4c5ccncc5n([C@H]5CC[C@H](C)CC5)c4n3)nc21 (stereo partly drawn) [Example 15, 2-(8-Methyl-2-((9-((1r,4r)-4-methylcyclohexyl)-9H-pyrido[4′,3′:4,5]pyrrolo[2,3-d]pyrimidin-2-yl)amino)-7,8-dihydro-1,6-naphthyridin-6(5H)-yl)ethanol]
0.0018 | 0.0545 | 0.0313 | CC1CNCc2ccc(Nc3ncc4c5ccncc5n([C@H]5CC[C@H](C)CC5)c4n3)nc21 (stereo partly drawn) [Example 13, N-(8-Methyl-5,6,7,8-tetrahydro-1,6-naphthyridin-2-yl)-9-((1r,4r)-4-methylcyclohexyl)-9H-pyrido[4′,3′:4,5]pyrrolo[2,3-d]pyrimidin-2-amine]
0.0361 | 0.0091 | 0.0024 | CS(=O)(=O)CCN1CCc2nc(Nc3ncc4c5ccncc5n([C@H]5CC[C@H](C)CC5)c4n3)ccc2C1 [Example 8, 9-((1r,4r)-4-Methylcyclohexyl)-N-(6-(2-(methylsulfonyl)ethyl)-5,6,7,8-tetrahydro-1,6-naphthyridin-2-yl)-9H-pyrido[4′,3′:4,5]pyrrolo[2,3-d]pyrimidin-2-amine]
0.0014 | 0.0239 | 0.0165 | C[C@H]1CC[C@H](n2c3cnccc3c3cnc(Nc4ccc5c(n4)C(O)CNC5)nc32)CC1 (stereo partly drawn) [Example 16, 2-((9-((1r,4r)-4-Methylcyclohexyl)-9H-pyrido[4′,3′:4,5]pyrrolo[2,3-d]pyrimidin-2-yl)amino)-5,6,7,8-tetrahydro-1,6-naphthyridin-8-ol]
